How the values were obtained:
[1] = target: T1, PDE5 (PDE5A1) (Homo sapiens, UniProt O76074); assay: Phosphodiesterase 5 inhibition assay (two-step radioactive procedure, [3H]cGMP); type: biochemical; conditions: for IC50: flavonoids, mean ± SD, triplicate
T1 construct: made in house; host or cells: HEK293 (transient transfection; supernatant of sonicated homogenate)

[2] = test system: PDE5 enzymes isolated from the mice lungs; set-up: method as in PMID 25920267; conditions: cited from earlier work
[3] = target: PDE5 enzymes isolated from the lungs and hearts of male guinea pigs; conditions: cited from earlier work
[4] = test system: rabbit corpus cavernosum tissues; set-up: method as in PMID 17968465; conditions: rabbit tissue; cited from earlier work

| Compound | PDE5 IC50 level (in words) [1] | IC50 [1] | PDE5 inhibitory activity of 3 relative to 1, 2 and 4 ([1]; times stronger than 1, 2, and 4) | PDE5 inhibition (in words) [2] | IC50 [3] | Relaxant effect on corpus cavernosum tissues [4] |
| --- | --- | --- | --- | --- | --- | --- |
| O=c1c(O)c(-c2ccc(O)c(O[C@@H]3OC[C@@H](O)[C@H](O)[C@H]3O)c2)oc2cc(O)cc(O)c12 [Compound 1, quercetin 3’-O-β-xylopyranoside] | micromolar level | 4.09 ± 0.76 µM |  |  |  |  |
| COc1c(-c2ccc(O)c(OC3OCC(O)C(O)C3O)c2)oc2cc(O)cc(O)c2c1=O (stereo not drawn) [Compound 2, quercetin 3-methyl ether 3’-O-β-xylopyranoside] | micromolar level | 5.63 ± 0.2 µM |  |  |  |  |
| O=c1c(O)c(-c2ccc(O)c(O)c2)oc2cc(O)cc(O)c12 [Compound 3, quercetin] | micromolar level | 0.61 ± 0.11 µM | 7–9 times | inhibit PDE5 enzymes |  |  |
| COc1c(-c2ccc(O)c(O)c2)oc2cc(O)cc(O)c2c1=O [Compound 4, 3-O-methylquercetin] | micromolar level | 5.74 ± 2.11 µM |  |  | 86.9 µM |  |
| O=c1c(O)c(-c2ccc(O)cc2)oc2cc(O)cc(O)c12 [Compound 5, kaempferol] |  |  |  | inhibit PDE5 enzymes |  |  |
| COc1c(-c2ccc(O)cc2)oc2cc(O)cc(O)c2c1=O [Compound 6, 3-O-methylkaempferol] | micromolar level | 4.41 ± 0.46 µM |  |  |  |  |
| COc1ccc(C[C@@H]2c3cc(Oc4cc(C[C@@H]5c6cc(OC)c(OC)cc6CCN5C)ccc4O)c(OC)cc3CCN2C)cc1 [Neferine] |  |  |  |  |  | relaxant effect |

Source: publication PMC10420992, “Phosphodiesterase 5 and Arginase Inhibitory Activities of the Extracts from Some Members of Nelumbonaceae and Nymphaeaceae Families” (Molecules, 2023)
